Data from ChEMBL document CHEMBL5096222, “Discovery of a Trifluoromethoxy Cyclopentanone Benzothiazole Receptor-Interacting Protein Kinase 1 Inhibitor as the Treatment for Alzheimer's Disease” (J Med Chem, 2022).
Active and inactive are the calls of the source. The calls are words filed in the database; no cut-off is given here.

How the values were obtained:
[1] = biological target: T1, Receptor-interacting serine/threonine-protein kinase 3 (Homo sapiens, UniProt Q9Y572); experiment: Inhibition of RIPK3 phosphorylation in TSZ induced human HT-29 cells at 1 uM pretreated with compound followed by TSZ stimulation upto 6 hrs by immunoblotting analysis; assay type: cell-based
Target sequence in this assay (Q9Y572 whole entry, looked up): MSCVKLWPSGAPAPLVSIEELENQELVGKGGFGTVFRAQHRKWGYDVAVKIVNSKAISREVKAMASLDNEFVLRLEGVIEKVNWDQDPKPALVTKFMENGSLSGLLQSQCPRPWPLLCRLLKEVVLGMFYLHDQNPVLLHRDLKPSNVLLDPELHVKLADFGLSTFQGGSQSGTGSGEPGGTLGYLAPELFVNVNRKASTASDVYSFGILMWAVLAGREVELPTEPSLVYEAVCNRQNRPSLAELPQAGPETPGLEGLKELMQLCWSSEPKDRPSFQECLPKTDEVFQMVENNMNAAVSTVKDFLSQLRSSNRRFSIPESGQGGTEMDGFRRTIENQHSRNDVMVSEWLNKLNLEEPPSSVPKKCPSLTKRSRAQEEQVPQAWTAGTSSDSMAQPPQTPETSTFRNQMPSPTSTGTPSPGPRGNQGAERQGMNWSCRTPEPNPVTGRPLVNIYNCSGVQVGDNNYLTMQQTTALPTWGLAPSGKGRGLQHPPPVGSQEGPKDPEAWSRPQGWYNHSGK

[2] = biological target: T2, Receptor-interacting serine/threonine-protein kinase 1 (Homo sapiens) (UniProt Q13546); experiment: Inhibition of RIPK1 in human HT-29 cells assessed as reduction in TSZ induced necroptosis at 25 to 50 nM pretreated with compound followed by TSZ stimulation for 8 hrs by celltiter-glo luminescent cell viability assay relative to control; assay type: cell-based; settings: dose 25-50 nM
T2 sequence (whole entry): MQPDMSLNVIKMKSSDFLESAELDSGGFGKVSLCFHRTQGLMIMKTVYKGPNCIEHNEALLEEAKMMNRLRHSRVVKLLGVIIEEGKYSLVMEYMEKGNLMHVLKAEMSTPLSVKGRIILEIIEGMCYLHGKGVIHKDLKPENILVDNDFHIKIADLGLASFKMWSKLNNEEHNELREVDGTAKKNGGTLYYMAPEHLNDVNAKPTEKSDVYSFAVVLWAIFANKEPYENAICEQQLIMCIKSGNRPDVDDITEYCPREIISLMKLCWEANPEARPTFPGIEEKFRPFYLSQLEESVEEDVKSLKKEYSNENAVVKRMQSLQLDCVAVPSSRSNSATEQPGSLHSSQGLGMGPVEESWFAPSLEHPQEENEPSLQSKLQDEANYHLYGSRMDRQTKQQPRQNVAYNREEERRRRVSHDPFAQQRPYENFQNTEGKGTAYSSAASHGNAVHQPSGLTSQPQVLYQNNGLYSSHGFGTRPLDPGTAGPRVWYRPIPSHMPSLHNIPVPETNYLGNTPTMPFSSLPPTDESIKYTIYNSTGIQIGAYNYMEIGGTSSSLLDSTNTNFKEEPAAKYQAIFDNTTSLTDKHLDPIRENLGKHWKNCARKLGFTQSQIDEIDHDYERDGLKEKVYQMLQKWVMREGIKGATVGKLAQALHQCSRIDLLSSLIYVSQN

[3] = biological target: T1, Receptor-interacting serine/threonine-protein kinase 3; experiment: Binding affinity to recombinant human wild type partial length RIPK3 (M1 to Q307 residues) expressed in bacterial expression system by KINOMEscan TM assay
Target sequence in this assay (Q9Y572 whole entry): as the sequence (Q9Y572 whole entry, looked up) above

[4] = system: Mus musculus; experiment: Antialzheimer activity against STZ induced C57BL/6 mouse model of cognitive dysfunction assessed as increase in quadrant time at 1 mg/kg, IG administered once daily for 7 days; assay type: functional, organism-based; settings: time 7.0 day
[5] = system: Mus musculus; experiment: Antialzheimer activity against STZ induced C57BL/6 mouse model of cognitive dysfunction assessed as increase in number of active avoidance time at 1 mg/kg, IG administered once daily and measured for 4 days by active avoidance test; assay type: functional, organism-based; settings: time 4.0 day
[6] = system: Mus musculus; experiment: Anti-necroptosis activity against TNFalpha-induced C57BL/6 mouse model of systemic inflammatory response syndrome assessed as reduction in IL-1 beta level administered IG pretreated for 1 hr followed by TNFalpha stimulation for 2 hrs; assay type: functional, organism-based; settings: dose 10-40 mg/kg, time 3.0 hrs, DDE = dose-dependent effect
[7] = system: Mus musculus; experiment: Antialzheimer activity against STZ induced C57BL/6 mouse model of cognitive dysfunction assessed as reduction in latency at 1 mg/kg, IG administered once daily for 7 days; assay type: functional, organism-based; settings: time 7.0 day
[8] = biological target: T3, Mixed lineage kinase domain-like protein (Homo sapiens) (UniProt Q8NB16); experiment: Inhibition of MLKL phosphorylation in TSZ induced human HT-29 cells at 1 uM pretreated with compound followed by TSZ stimulation upto 6 hrs by immunoblotting analysis; assay type: cell-based
T3 sequence (whole entry): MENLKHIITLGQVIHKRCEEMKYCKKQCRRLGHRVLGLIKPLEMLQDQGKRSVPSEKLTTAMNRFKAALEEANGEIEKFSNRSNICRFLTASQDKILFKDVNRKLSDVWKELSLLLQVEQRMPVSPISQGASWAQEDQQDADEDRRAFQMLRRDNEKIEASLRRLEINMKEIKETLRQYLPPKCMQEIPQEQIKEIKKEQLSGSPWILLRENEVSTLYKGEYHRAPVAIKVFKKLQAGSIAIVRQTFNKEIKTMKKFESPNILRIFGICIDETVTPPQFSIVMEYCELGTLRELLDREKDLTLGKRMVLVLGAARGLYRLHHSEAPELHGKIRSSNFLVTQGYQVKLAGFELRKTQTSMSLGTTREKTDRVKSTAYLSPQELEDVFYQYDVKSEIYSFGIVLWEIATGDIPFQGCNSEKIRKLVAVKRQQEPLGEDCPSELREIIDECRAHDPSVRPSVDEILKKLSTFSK

[9] = system: HT-29; experiment: Inhibition of RIPK1 expression in TSZ induced human HT-29 cells at 1 uM pretreated with compound followed by TSZ stimulation upto 6 hrs by immunoblotting analysis; assay type: functional, cell-based
[10] = organism: Mus musculus; experiment: Antialzheimer activity against STZ induced C57BL/6 mouse model of cognitive dysfunction assessed as downregulation of IL-1 beta in frontal cortex; assay type: functional, organism-based
[11] = biological target: T2, Receptor-interacting serine/threonine-protein kinase 1 (Homo sapiens); experiment: Inhibition of RIPK1 in human HT-29 cells assessed as reduction in TSZ induced necroptosis pretreated with compound followed by TSZ stimulation for 8 hrs by celltiter-glo luminescent cell viability assay; assay type: cell-based; settings: dose 0.4-50 nM, DDE = dose-dependent effect
[12] = system: Mus musculus; experiment: Antialzheimer activity against STZ induced C57BL/6 mouse model of cognitive dysfunction assessed as increase in central distance of mouse at 1 mg/kg, IG administered once daily for 7 days; assay type: functional, organism-based; settings: time 7.0 day
[13] = Toxicity in C57BL/6 mouse assessed as effect on lungs by H and E staining based analysis; settings: in vivo
[14] = system: Mus musculus; experiment: Antialzheimer activity against STZ induced C57BL/6 mouse model of cognitive dysfunction assessed as increase in preference index at 1 mg/kg, IG administered once daily for 7 days by novel object recognition test; assay type: functional, organism-based; settings: time 7.0 day
[15] = Toxicity in C57BL/6 mouse assessed as effect on spleen by H and E staining based analysis; assay type: tissue-based; settings: in vivo
[16] = organism: Mus musculus; experiment: Antialzheimer activity against STZ induced C57BL/6 mouse model of cognitive dysfunction assessed as restoration of hippocampal cell number by Nissl staining based analysis; assay type: functional, organism-based
[17] = organism: Mus musculus; experiment: Antialzheimer activity against STZ induced C57BL/6 mouse model of cognitive dysfunction assessed as decrease in p-Tau level in frontal cortex by Western blot analysis; assay type: functional, organism-based
[18] = organism: Mus musculus; experiment: Antialzheimer activity against STZ induced C57BL/6 mouse assessed as decrease in p-RIPK1/RIPK1 ratio in frontal cortex; assay type: functional, organism-based
[19] = organism: Mus musculus; experiment: Antialzheimer activity against STZ induced C57BL/6 mouse model of cognitive dysfunction assessed as restoration of hippocampal morphology by Nissl staining based analysis; assay type: functional, organism-based
[20] = organism: Mus musculus; experiment: Antialzheimer activity against STZ induced C57BL/6 mouse model of cognitive dysfunction assessed as downregulation of IL-1 beta in hippocampus; assay type: functional, organism-based
[21] = organism: Mus musculus; experiment: Antialzheimer activity against STZ induced C57BL/6 mouse model of cognitive dysfunction assessed as decrease of TNF-alpha expression in frontal cortex; assay type: functional, organism-based
[22] = biological target: T2, Receptor-interacting serine/threonine-protein kinase 1 (Homo sapiens); experiment: Inhibition of RIPK1 phosphorylation in TSZ induced human HT-29 cells at 1 uM pretreated with compound followed by TSZ stimulation upto 6 hrs by immunoblotting analysis relative to control; assay type: cell-based
[23] = biological target: T4, Receptor-interacting serine/threonine-protein kinase 1 (Homo sapiens, UniProt Q13546); experiment: Binding affinity to recombinant human wild type partial length RIPK1 (M1 to K305 residues) expressed in bacterial expression system by KINOMEscan TM assay
T4 sequence (Q13546 whole entry): T2 sequence (whole entry)

[24] = Cytotoxicity against human HT-29 cells assessed as reduction in cell viability by celltiter-glo luminescent cell viability assay; assay type: toxicity, cell-based
[25] = organism: Mus musculus; experiment: Antialzheimer activity against STZ induced C57BL/6 mouse model of cognitive dysfunction assessed as decrease of TNF-alpha expression in hippocampus; assay type: functional, organism-based
[26] = system: Mus musculus; experiment: Antialzheimer activity against STZ induced C57BL/6 mouse model of cognitive dysfunction assessed as prolonged exploration time for new objects at 1 mg/kg, IG administered once daily for 7 days by novel object recognition test; assay type: functional, organism-based; settings: time 7.0 day
[27] = system: Mus musculus; experiment: Anti-necroptosis activity against TNFalpha-induced C57BL/6 mouse model of systemic inflammatory response syndrome assessed as reduction in IL-6 level administered IG pretreated for 1 hr followed by TNFalpha stimulation for 2 hrs; assay type: functional, organism-based; settings: dose 10-40 mg/kg, time 3.0 hrs, DDE = dose-dependent effect
[28] = system: Mus musculus; experiment: Anti-necroptosis activity against TNFalpha-induced C57BL/6 mouse model of systemic inflammatory response syndrome assessed as protection against hypothermia at 20 to 40 mg/kg, IG pretreated for 1 hr followed by TNFalpha stimulation relative to control; assay type: functional; settings: dose 20-40 mg/kg
[29] = system: Mus musculus; experiment: Antialzheimer activity against STZ induced C57BL/6 mouse model of cognitive dysfunction assessed as increase in percentage of quadrant time at 1 mg/kg, IG administered once daily for 7 days; assay type: functional, organism-based; settings: time 7.0 day
[30] = organism: Mus musculus; experiment: Antialzheimer activity against STZ induced C57BL/6 mouse assessed as decrease in p-RIPK3/RIPK3 ratio in hippocampus; assay type: functional, organism-based
[31] = system: HT-29; experiment: Inhibition of TSZ induced RIPK1-RIPK3 necrosome formation in human HT-29 cells at 1 uM measured after 6 hrs by immunoblot analysis; assay type: functional, cell-based
[32] = organism: Mus musculus; experiment: Antialzheimer activity against STZ induced C57BL/6 mouse assessed as decrease in p-RIPK3/RIPK3 ratio in frontal cortex; assay type: functional, organism-based
[33] = system: HT-29; experiment: Anti-necroptotic activity in TSZ induced human HT-29 cells assessed as increase in cell viability pretreated with compound followed by TSZ stimulation and measured after 16 hrs by celltiter-glo luminescent cell viability assay; assay type: functional, cell-based
[34] = organism: Mus musculus; experiment: Antialzheimer activity against STZ induced C57BL/6 mouse assessed as decrease in p-RIPK1/RIPK1 ratio in hippocampus; assay type: functional, organism-based
[35] = biological target: T5, Receptor-interacting serine/threonine-protein kinase 1 (Mus musculus) (UniProt Q60855); experiment: Inhibition of RIPK1 in mouse L929 cells assessed as reduction in TZ induced necroptosis pretreated with compound followed by TZ stimulation for 4 hrs by celltiter-glo luminescent cell viability assay; assay type: cell-based; settings: dose 0.000781-0.025 µM, DDE = dose-dependent effect
T5 sequence (whole entry): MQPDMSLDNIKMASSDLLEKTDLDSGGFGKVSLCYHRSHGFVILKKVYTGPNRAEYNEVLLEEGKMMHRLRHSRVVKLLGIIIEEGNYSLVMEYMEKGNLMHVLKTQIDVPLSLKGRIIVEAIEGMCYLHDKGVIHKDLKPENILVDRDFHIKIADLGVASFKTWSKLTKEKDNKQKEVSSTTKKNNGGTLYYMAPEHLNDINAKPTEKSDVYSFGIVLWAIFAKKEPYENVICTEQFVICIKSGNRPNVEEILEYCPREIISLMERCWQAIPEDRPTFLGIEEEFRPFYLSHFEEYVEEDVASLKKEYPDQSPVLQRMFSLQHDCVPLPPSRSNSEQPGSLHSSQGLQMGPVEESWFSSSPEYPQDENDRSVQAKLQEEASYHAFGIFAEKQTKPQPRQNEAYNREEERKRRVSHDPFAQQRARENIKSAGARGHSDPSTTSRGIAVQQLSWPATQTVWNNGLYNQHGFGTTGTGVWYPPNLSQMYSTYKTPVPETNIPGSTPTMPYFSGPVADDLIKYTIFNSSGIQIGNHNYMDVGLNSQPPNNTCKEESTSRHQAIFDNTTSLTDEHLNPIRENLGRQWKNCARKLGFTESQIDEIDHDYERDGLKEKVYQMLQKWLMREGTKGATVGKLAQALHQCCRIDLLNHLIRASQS

[36] = Cytotoxicity against mouse primary neurons assessed as reduction in cell viability at 0.256 to […] by celltiter-glo luminescent cell viability assay; assay type: toxicity, cell-based; settings: neuron, dose 0.256-[…]
[37] = Toxicity in C57BL/6 mouse assessed as effect on heart by H and E staining based analysis; assay type: tissue-based; settings: in vivo
[38] = Toxicity in C57BL/6 mouse assessed as effect on kidney by H and E staining based analysis; assay type: tissue-based; settings: in vivo
[39] = organism: Mus musculus; experiment: Antialzheimer activity against STZ induced C57BL/6 mouse model of cognitive dysfunction assessed as decrease in p-Tau level in hippocampus by Western blot analysis; assay type: functional, organism-based
[40] = Toxicity in C57BL/6 mouse assessed as effect on liver by H and E staining based analysis; assay type: tissue-based; settings: in vivo
[41] = biological target: T2, Receptor-interacting serine/threonine-protein kinase 1 (Homo sapiens); experiment: Inhibition of RIPK1 in human HT-29 cells assessed as reduction in TCZ induced necroptosis at 0.2 to 25 nM pretreated with compound followed by TCZ stimulation for 16 hrs by celltiter-glo luminescent cell viability assay; assay type: cell-based; settings: dose 0.2-25 nM

O=C1CC(C(=O)Nc2nc3cc(Oc4ccc(F)c(NC(=O)Cc5cccc(OC(F)(F)F)c5)c4)c(F)cc3s2)C1
inhibition [1]: Active
inhibition [2]: 100%
Kd [3]: > 5000 nM
Activity [4]: Active
Activity [5]: Active
Activity [6]: Dde
Activity [7]: Active
inhibition [8]: Active
inhibition [9]: Active
Activity [10]: Active
inhibition [11]: Dde
Activity [12]: Active
Activity [13]: Non-Toxic
Activity [14]: Active
Activity [15]: Non-Toxic
Activity [16]: Active
Activity [17]: Active
Activity [18]: Active
Activity [19]: Active
Activity [20]: Active
Activity [21]: Active
inhibition [22]: 100%
Kd [23]: 8.6 nM
CC50 [24]: > 50000 nM
Activity [25]: Active
Activity [26]: Active
Activity [27]: Dde
Activity [28]: 100%
Activity [29]: Active
Activity [30]: Active
inhibition [31]: Active
Activity [32]: Active
EC50 [33]: 2 nM
Activity [34]: Active
Activity [35]: Dde
Activity [36]: Non-Toxic
Activity [37]: Non-Toxic
Activity [38]: Non-Toxic
Activity [39]: Active
Activity [40]: Non-Toxic
inhibition [41]: Active
